Converted amounts (≈) assume the structure as drawn.
Conditions: buffer; pH 7.4; 200.0 µM

Structure (SMILES) | solubility kinetic [µg/mL]
COC(=O)c1ccc(COC(=O)C2CCN(S(=O)(=O)c3ccccc3C(=O)OC)CC2)cc1 | 11 (≈ 23.1 µM)
CN1C(=O)N(CC(=O)Nc2nccs2)C(=O)C12CCCCC2 | > 48.4
COc1ccc(NC(=O)CC2CC3CCC2C3)cc1S(=O)(=O)N1CCOCC1 (centres undefined) | > 61.3
O=Cc1ccc(OCCCOc2cccc3cccnc23)cc1 | 37.7 (≈ 123 µM)
Cc1ccccc1CCNCc1cc2cccc(C)c2[nH]c1=O | > 46
c1ccc(CCNc2ncnc3sccc23)nc1 | > 38.4
O=C1CNC(=O)N1c1ccc(Cl)cc1 | > 31.6
Nc1cc(Cl)ccc1Nc1ccncc1 | > 33
O=[N+]([O-])c1ccc(CN2CCCCCC2)cc1 | > 35.1
CCCC(=O)Nc1sc(C)c(C)c1C#N | 13.6 (≈ 61.2 µM)
CC(NC(=O)c1ccc([N+](=O)[O-])o1)C12CC3CC(CC(C3)C1)C2 (centres undefined) | 29.5 (≈ 92.7 µM)
CCCc1nc2c(sc3nc4c(cc32)COC(C)(C)C4)c(=O)o1 | 24.1 (≈ 72.9 µM)
Cc1ccc(NCc2nc3ccccc3n2C)c(C)c1 | 32.1 (≈ 121 µM)
CCn1c(=O)c(C(=O)NCCCc2ccccc2)c(O)c2ccccc21 | < 0.4
COC(=O)c1ccc(CSCC(=O)Nc2ccccc2)cc1 | > 47.3
S=C1NCCNC(=S)NCCOCCOCCOCCN1 | > 50.5
O=C(Nc1cccc(O)c1)C1CC(c2ccc(Cl)cc2)=NO1 (centres undefined) | 2.3 (≈ 7.26 µM)
c1ccc(CN2CCN(c3cnc4ccccc4n3)CC2)cc1 | 37.7 (≈ 124 µM)
Cn1c(N)c(C(=O)COC(=O)c2ccccc2C(F)(F)F)c(=O)n(C)c1=O | 6.3 (≈ 16.4 µM)
O=c1ccnc(Nc2ccc([N+](=O)[O-])cc2)[nH]1 | > 34.8
Cc1nc(NCCOc2ccccc2)sc1C(=O)Nc1ccccc1 | 2 (≈ 5.66 µM)
COc1ccc(S(=O)(=O)N2CC(=O)Nc3ccccc32)cc1C | > 49.9
CCC(C(=O)Nc1ccc(C(=O)N2CCCC2)cc1)c1ccccc1 (centres undefined) | > 50.5
O=C(O)c1ccc(NC2=Nc3cccc4cccc2c34)cc1 | 36 (≈ 125 µM)

Structure (SMILES) | solubility kinetic [µg/mL]
COC1=C(N)C(=O)c2nc(-c3nc(C(=O)O)c(C)c(-c4ccc(OC)c(OC)c4O)c3N)ccc2C1=O | 74.9 (≈ 148 µM)
COC(=O)C1CCN(C(=O)c2ccc(OC)c(S(=O)(=O)N3CCCc4ccccc43)c2)CC1 | > 70.9
O=C1Nc2ccc(S(=O)(=O)NCCCO)c3cccc1c23 | > 46
COc1nccc(C(F)(F)F)c1C(=O)NC(=O)Nc1ccccc1 | 11.5 (≈ 33.9 µM)
O=S(=O)(NC1CCCC1)c1cc(F)ccc1F | > 39.2
CC(C)OC(=O)/C(=C\c1ccccc1)NC(=O)c1ccccc1 | > 46.4
CC(OC(=O)c1cccc(Cl)c1)C(=O)NC1CCCCC1C (centres undefined) | 8.7 (≈ 26.9 µM)
COc1ccc2c(C(=O)CN3CCSCC3)c[nH]c2c1 | 36.8 (≈ 127 µM)
COc1ccccc1CNC(=O)CCNS(=O)(=O)/C=C/c1ccc(C)cc1 | 57.8 (≈ 149 µM)
O=C(/C=C/c1ccc(Cl)cc1)NCCCn1ccnc1 | > 43.5
CCC1CO/C(=C(\C(=C(Cl)Cl)N2CCOCC2)[N+](=O)[O-])N1 (centres undefined) | > 50.7
OCc1ccnc2oc3ccccc3c12 | 28.8 (≈ 145 µM)
CNC(=O)CC1C(=O)N(C)C(=S)N1NC(=O)c1ccccc1 (centres undefined) | > 48.1
Cc1ccc(Cl)cc1NC(=O)C1C2CCC(O2)C1C(=O)O (centres undefined) | > 46.5
Cc1cc(C)nc(NC(=S)NC(=O)c2ccccc2)n1 | 5.8 (≈ 20.3 µM)
CCCCn1c(=O)[nH]c(=O)c2c1nc(-c1ccccn1)n2CC | 18.7 (≈ 59.7 µM)
Cc1ccc(NC(=O)C2CCCN(c3ncccn3)C2)c(C)c1 (centres undefined) | 8.5 (≈ 27.4 µM)
CCOC(=O)CN1CCS(=O)(=O)CC1 | > 33.2
COc1ccc(S(=O)(=O)NCc2ccccn2)cc1OC | 43 (≈ 139 µM)
O=C(Nc1ccc(F)cc1)c1cc2ccccc2o1 | 1.9 (≈ 7.44 µM)
O=C(c1ccccc1)C1CN(Cc2ccccc2)CCC1(O)c1ccccc1 (centres undefined) | 10.4 (≈ 28 µM)
CC(NC(=O)CCC(=O)c1ccc(F)cc1)C1CC2CCC1C2 (centres undefined) | 12.5 (≈ 39.4 µM)
O=C(COC(=O)/C=C/c1ccc(OC(F)F)cc1)NC(=O)NC1CCCCC1 | 4.5 (≈ 11.4 µM)
O=C(NCc1ccccc1)C1CC(=O)N(C2CCCCCC2)C1 (centres undefined) | > 47.2

Structure (SMILES) | solubility kinetic [µg/mL]
Cc1noc(C)c1C(=O)OCC(=O)C12CC3CC(CC(C3)C1)C2 | < 0.7
CC(=O)c1ccc(NC(=O)C[n+]2cccc(C)c2)cc1.[Cl-] | > 45.7
COc1ccc(OCC(O)CN2C(=O)c3ccccc3C2=O)cc1 (centres undefined) | > 49.1
Cn1c(N)c(C(=O)COC(=O)Cc2ccccc2)c(=O)n(C)c1=O | > 49.7
CCCCn1c(Nc2ccc(OC)cc2)nc2ccccc21 | 0.6 (≈ 2.03 µM)
COc1ccc(Cl)cc1C(=O)NCc1ccco1 | 31.8 (≈ 120 µM)
CC(C)[C@H](NS(=O)(=O)c1ccccc1)C(=O)OCC(=O)NC(=O)NC1CCCCC1 | > 65.9
O=C(N/N=C1\CC2CC=CC12)c1ccc(Br)cc1 (centres undefined) | > 45.8
Cc1cc(N/C=C/C(=O)c2ccccc2)ccc1Br | < 0.7
CC(=O)c1cccc(NC(=O)c2ccc3c(c2)CCCC3)c1 | 0.8 (≈ 2.73 µM)
O=C(COC(=O)c1cnc(Cl)c(Cl)c1)c1ccc(F)cc1 | 9.4 (≈ 28.6 µM)
CC(C)(C)NC(=O)NC(=O)COC(=O)CNC(=O)C1CCCCC1 | 40.9 (≈ 120 µM)
Cc1ccc(NC(=O)C(C)N2CCc3ccccc3C2)cc1 (centres undefined) | 31.8 (≈ 108 µM)
CCCCCn1c(=O)c(C(=O)OCC)c(Cl)c2ccccc21 | 6.5 (≈ 20.2 µM)
COc1ccccc1OCCC(=O)OCC(=O)Nc1ccc2c(c1)OCO2 | 16.3 (≈ 43.7 µM)
CN1CCN(c2ncc(CN3C(=O)c4ccccc4C3=O)s2)CC1 | > 51.4
Cc1occc1C(=O)N1CCCC(Nc2ccc(F)cc2)C1 (centres undefined) | > 45.4
OC(CN1CCN(Cc2ccccc2)CC1)c1ccc(Br)cc1 (centres undefined) | 8.1 (≈ 21.6 µM)
COc1ccc2nc(S(=O)Cc3ncc(C)c(OC)c3C)[nH]c2c1 (centres undefined) | 35.4 (≈ 102 µM)
CCOC(=O)C1(CC2CC2)CCN(C(=O)c2cccnc2C)CC1 | > 49.6
O=C(CN1C(=O)CCS(=O)(=O)c2ccccc21)NCCc1ccccc1 | 55.3 (≈ 148 µM)
CN(/C=C/c1c([N+](=O)[O-])c(=O)n(C)c(=O)n1C)c1ccccc1 | 4.9 (≈ 15.5 µM)
COC(=O)C1=C(NC(=O)c2ccccc2C)CCS1 | 10 (≈ 36.1 µM)
COc1ccc(C(=O)N2CCC(O)(c3ccc(Cl)cc3)CC2)cc1OC | > 56.4

Structure (SMILES) | solubility kinetic [µg/mL]
O=C(CSc1nccc(=O)[nH]1)Nc1ccc2c(c1)OCCO2 | 40.8 (≈ 128 µM)
COc1cc(CN(C)Cc2cccc3ccccc23)cc([N+](=O)[O-])c1O | 33.8 (≈ 95.9 µM)
COc1cc2c(cc1OC)CN(CC(O)c1ccccc1)CC2 (centres undefined) | 44.3 (≈ 141 µM)
Cc1cccc(NC(=O)Nc2ccc(Br)cc2)n1 | < 0.2
Cc1cccc(C)c1NC(=O)N1CCCCCCC1 | 38.8 (≈ 149 µM)
O=C(OCC(=O)N1CCCC1)c1cnc(Cl)c(Cl)c1 | > 45.5
O=C(CN1CCCC1)Nc1ccc(Br)cc1[N+](=O)[O-] | 20.3 (≈ 61.9 µM)
C=CCC1Cc2c(Br)cccc2C(CC=C)N1 (centres undefined) | 13.3 (≈ 45.5 µM)
COc1cc(OC)c(NC(C)C(=O)N2CCCC2)cc1Cl (centres undefined) | 45.1 (≈ 144 µM)
COC(=O)c1cc(-n2cccc2)ccc1N1CCOCC1 | 35.6 (≈ 124 µM)
Nc1ccc(CCn2ccnc2)cc1 | > 28.1
Cl.O=C(CN1CCOCC1)c1ccc(Br)cc1 | > 48.1
Cc1[nH]c2ccc(Cl)cc2c(=O)c1CN1CCCC1 | 38.7 (≈ 140 µM)
COc1ccccc1NS(=O)(=O)c1ccc(C(=O)NCC(c2cccs2)N2CCOCC2)cc1 (centres undefined) | 20 (≈ 39.9 µM)
CC1=Nc2cc([N+](=O)[O-])ccc2NC(C)(C)C1 | 17 (≈ 72.9 µM)
Cn1c(=NC(=O)COc2ccccc2)sc2cc(F)cc(F)c21 | < 0.4
Cc1c(Cl)cccc1NC(=O)C1C2C=CC(C2)C1C(=O)O (centres undefined) | > 45.9
Cc1csc2c(N3CCC(C(=O)O)CC3)ncnc12 | 36.9 (≈ 133 µM)
CCN(CC)C(=O)CN1C(=O)NC2(CCc3ccccc3C2)C1=O (centres undefined) | > 49.4
OCC(O)CN(c1ccccc1)c1ccccc1 (centres undefined) | > 36.5
COc1ccccc1NC(=O)NC1CCCc2ccccc21 (centres undefined) | 0.8 (≈ 2.7 µM)
CCOC(=O)C1CCN(C(=O)CSc2nc3ncccc3[nH]2)CC1 | 51.5 (≈ 148 µM)
NS(=O)(=O)c1ccc(NC(=O)C(=O)NCCC(=O)O)cc1 | > 47.3
CN1CCC(=NOc2ccc([N+](=O)[O-])cc2)CC1 | > 37.4

Structure (SMILES) | solubility kinetic [µg/mL]
Cc1ccc(NC(=S)NC2CCSc3ccccc32)cc1 (centres undefined) | 2.7 (≈ 8.59 µM)
CC(NC(=O)CN1CCN(C(=O)c2cccs2)CC1)c1ccc(F)cc1F (centres undefined) | > 59
COc1cccc(-c2nc(=S)c3c(o2)CCCC3)c1 | 12.1 (≈ 44.3 µM)
COc1ccc(OCC(=O)Nc2ccc3oc(=O)ccc3c2)cc1 | 3.3 (≈ 10.1 µM)
O=C(COc1ccc(Cl)cc1)NCc1ccc(F)cc1 | 41.5 (≈ 141 µM)
COC(=O)C[n+]1cccc2ccccc21.[Cl-] | > 35.7
CCOc1ccc(S(=O)(=O)N2CCN(C(=O)C3CC3C)CC2)cc1 (centres undefined) | 51.7 (≈ 147 µM)
NS(=O)(=O)c1ccc(NC(=O)c2cc(=O)c3ccccc3o2)cc1 | 18.7 (≈ 54.3 µM)
Cc1ccc(C)c(S(=O)(=O)NC2CCSC2=O)c1 (centres undefined) | > 42.8
Cc1nc2ccccc2c(=O)n1NC(=O)c1c(F)cccc1F | > 47.3
COc1ccc(CCNC(=O)COC(=O)c2ccccn2)cc1 | > 47.2
CN1CCN(c2ncnc(Cl)c2N)CC1 | > 34.2
N#Cc1ccccc1NC(=O)c1ccc2c(c1)OCCO2 | 37.4 (≈ 133 µM)
CCCc1nc2oc3c(Cl)ncnc3c2c2c1CCCC2 | < 0.2
CCC(=O)Nc1cc2[nH]c(=O)cc(C)c2cc1C | 33.4 (≈ 137 µM)
COc1ccccc1C(=O)CN1C(=O)NC2(CCCCCC2)C1=O | 12.9 (≈ 39 µM)
COc1ccc(NC(=O)CC2CCCC2)cc1OC | > 39.5
Cc1ccc(C(=O)NCCONC(=O)c2ccc(C)cc2)cc1 | 45.6 (≈ 146 µM)
CC(C(=O)OCC(=O)NC1CCCCC1)N1C(=O)c2ccccc2C1=O (centres undefined) | > 53.8
COCC(C)n1c(SCC(=O)NC(=O)NCc2ccccc2)nc2ccccc2c1=O (centres undefined) | 2.7 (≈ 6.13 µM)
O=C(OCN1C(=O)c2ccccc2C1=O)c1ccc(Cl)nc1 | 14.3 (≈ 45.2 µM)
CC(NC(=O)CN(C)Cc1cccc(Cl)c1)c1ccccc1 (centres undefined) | 38.6 (≈ 122 µM)
Cc1cc(=O)[nH]c(-c2cccs2)n1 | > 28.8

— PubChem BioAssay AID1996
